Source: PubChem BioAssay (NCI)
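Tested at 5 concentrations; 48 h exposure; 96-well plates; endpoints linearly interpolated, else capped at highest concentration. GI50: concentration for 50% inhibition of growth. TGI: concentration producing complete growth inhibition.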

Assays:
Assay in all cases: NCI anticancer screen, dose series, 48 h
SW-620 colon = tested on: SW-620 colon
OVCAR-5 ovarian = tested on: OVCAR-5 ovarian
UACC-62 melanoma = tested on: UACC-62 melanoma
OVCAR-8 ovarian = tested on: OVCAR-8 ovarian
NCI-H460 lung = tested on: NCI-H460 lung
HCC-2998 colon = tested on: HCC-2998 colon
UO-31 renal = tested on: UO-31 renal
HOP-62 NSCLC = tested on: HOP-62 NSCLC
EKVX NSCLC = tested on: EKVX NSCLC
HS 578T breast = tested on: HS 578T breast

Row | SMILES | TGI (SW-620 colon) [µM] | TGI (OVCAR-5 ovarian) [µM] | TGI (UACC-62 melanoma) [µM] | TGI (OVCAR-8 ovarian) [µM] | TGI (NCI-H460 lung) [µM] | TGI (HCC-2998 colon) [µM] | TGI (UO-31 renal) [µM] | TGI (HOP-62 NSCLC) [µM] | TGI (EKVX NSCLC) [µM] | TGI (HS 578T breast) [µM] | GI50 (OVCAR-5 ovarian) [µM] | GI50 (OVCAR-8 ovarian) [µM] | GI50 (NCI-H460 lung) [µM] | GI50 (UO-31 renal) [µM] | GI50 (HS 578T breast) [µM] | GI50 (HOP-62 NSCLC) [µM] | GI50 (EKVX NSCLC) [µM] | GI50 (SW-620 colon) [µM] | GI50 (UACC-62 melanoma) [µM] | GI50 (HCC-2998 colon) [µM]
1 | CCOC(=O)C=C1CCN(C(=O)c2ccccc2)CC1 | > 100 | > 100 | > 100 | > 100 | > 100 | > 100 | > 100 | > 100 | > 100 | – | – | – | – | – | – | – | – | – | – | –
2 | O=C1c2ccccc2C(=O)N1CC1(C(=O)O)NCCS1(=O)=O (stereo unspecified) | > 100 | > 100 | > 100 | > 100 | > 100 | – | > 100 | > 100 | > 100 | > 100 | – | – | – | – | – | – | – | – | – | –
3 | CS(=O)(=O)CC1=Nc2nnc(CCCCCCCc3nnc4n3C(=O)C(CS(C)(=O)=O)=N4)n2C1=O | > 100 | > 100 | > 100 | > 100 | > 100 | > 100 | > 100 | > 100 | > 100 | – | – | – | – | – | – | – | – | – | – | –
4 | CC12CCC(=O)C(O1)C1C(=O)c3cc4ccccc4cc3C(=O)C12 (stereo unspecified) | – | 69.6 | – | 54.9 | 51 | – | > 100 | > 100 | 72.2 | 73.1 | 29.3 | 22.1 | 14 | 42.5 | 28.7 | 45 | 23.4 | – | – | –
5 | O=C(NCCCCCCNC(=O)c1cccc2ccccc12)c1cccc2ccccc12 | > 100 | > 100 | > 100 | > 100 | > 100 | – | 66.3 | 48.3 | > 100 | – | – | – | – | – | – | – | – | – | – | –
6 | COc1cccc(OC(=O)c2ccccc2Nc2ccnc(C(F)(F)F)c2)c1 | > 100 | 35.6 | 33.9 | 29.3 | > 100 | – | > 100 | 6.73 | > 100 | > 100 | 3.53 | 3.63 | 4.1 | 61.2 | 4.85 | 2.84 | 6.62 | 4.37 | 3.09 | –
7 | COc1cc2cc(Oc3ccc(NC(=O)Nc4ccc(Cl)c(C(F)(F)F)c4)cc3)c(C)nc2cc1OCCN1CCCCC1 | 3.48 | 3.38 | 3.08 | – | 3.47 | 3.46 | 2.69 | – | 2.88 | – | 1.92 | – | 1.85 | 1.36 | – | – | 1.46 | 1.9 | 1.69 | 1.85
8 | C=C1C(=O)OC2CC3(C)C=CC(=O)C(=C)C3CC12 (stereo unspecified) | 2.36 | 8.05 | 2.92 | 4.92 | 7.12 | 6.55 | 3.13 | 19.2 | 6.85 | – | – | – | – | – | – | – | – | – | – | –
9 | O=S(=O)(c1ccc(NC(=S)NCc2cccnc2)cc1)N1CCCCC1 | > 100 | > 100 | > 100 | > 100 | > 100 | > 100 | > 100 | > 100 | – | > 100 | 5.46 | 0.0991 | 7.67 | 21.5 | 8.65 | > 100 | – | 0.579 | 23.4 | > 100
10 | O=C(CCn1[nH]c(=O)c(Cl)c(Cl)c1=O)NOCCCc1ccccc1 | > 100 | > 100 | > 100 | > 100 | > 100 | > 100 | > 100 | > 100 | > 100 | – | – | – | – | – | – | – | – | – | – | –
11 | CCCN(Cc1ccc(F)cc1)c1ccc(CO)c(Cl)c1 | 15.6 | 0.528 | 0.907 | 25.8 | 11.5 | 22.5 | 13.9 | 17.1 | – | 37.6 | 0.168 | 11.5 | 0.359 | 2.65 | 14.8 | 2.4 | – | 1.07 | 0.167 | 8.9
12 | COC(=O)[C@@H]1CSC(=S)N1C(=O)C[C@H]1CC=CC[C@H]1CC(=O)Sc1ccccc1 | 33.9 | 33.8 | 38.3 | 50.6 | 33.5 | 33.4 | 26.8 | 38 | 32.2 | – | – | – | – | – | – | – | – | – | – | –
13 | Cn1c(=O)c2[nH]c(/N=N/N3CCN(CCO)CC3)nc2n(C)c1=O | > 100 | > 100 | > 100 | > 100 | > 100 | – | > 100 | > 100 | > 100 | > 100 | – | – | – | – | – | – | – | – | – | –
14 | O=C(CC1Sc2ccccc2NC1=O)Nc1cc(Cl)ccc1Cl (stereo unspecified) | > 100 | > 100 | > 100 | > 100 | > 100 | > 100 | > 100 | – | > 100 | – | – | – | – | – | – | – | – | – | – | –
